Reference: patent US10323021B2, “Triazoles as NR2B receptor inhibitors” (Janssen Pharmaceuticals, Inc., priority 2014, dated 2019)

Test system: mice (forced swim test, model of depression)
Assay: Forced swim test in mice
Format: in vivo, mouse
Conditions: p.o., 30 minutes before the test, male NMRI mice
Experimental: The compounds of the invention show significant antidepressive effects in the forced swim test in mice, an animal model of depression at doses of 100 mg/kg or below.
The method, which detects antidepressant activity, follows that described by Porsolt et al (Arch. Int. Pharmacodyn., 229, 327-336, 1977), which is incorporated by reference herein in its entirety.
Mice forced to swim in a situation from which they cannot escape rapidly become immobile. Antidepressants decrease the duration of immobility.
Male NMRI mice (Janvier, France), weighing 20-30 g, were individually placed in a cylinder (height=24 cm; diameter=13 cm) containing 10 cm water (22° C.) from which they cannot escape.
The mice were placed in the water for 6 minutes and the duration of immobility during the last 4 minutes was measured. The latency to the first bout of immobility was also recorded starting from the beginning of the test. 10 mice were studied per group. The test substance was administered p.o. 30 minutes before the test and compared with vehicle control group. The test was performed blind.

Compound	Minimum effective dose [mg/kg]
Fc1ccc(-n2cc(Cn3ccnc3C3CC3)nn2)cc1C(F)F [Example 82, 4-(2-Cyclopropyl-imidazol-1-ylmethyl)-1-(3-difluoromethyl-4-fluoro-phenyl)-1H-[1,2,3]triazole]	60
OCCc1nccn1Cc1cn(-c2ccc(F)c(OC(F)F)c2)nn1 [Example 101, 1-(3-Difluoromethoxy-4-fluoro-phenyl)-4-[2-(2-hydroxy-ethyl)-imidazol-1-ylmethyl]-1H-[1,2,3]triazole]	>30
